Laboratory results published in paper PMC10290117, “Molecular mechanism of phosphopeptide neoantigen immunogenicity” (Nature Communications, 2023).

system: TCR27-AKD10R3 cells; assay: X-scan (peptide scan), EGFP reporter effector cells; type: cell-based, murine; conditions: Fig. 1c source data, HLA B*07, T2 cells pulsed with 25 μg peptide per 1 × 10^6 cells, 2 h, 37 °C, effector cells 2:1 overnight, mean value of triplicate
Method: Tap-deficient T2 (174x CEM.T2) HLA-B*0702+ cells were received from Dr. Victor Engelhard. These and the commercially purchased Tap-deficient T2 (174 x CEM.T2) cells (ATCC CRL 1991) were maintained in RPMI 1640 (BioConcept) supplemented with 10% fetal calf serum (FCS, HyClone), 2mM L-glutamine and 1% Penicillin/Streptomycin at 37 °C and 5% CO2. The EGFP reporter cell line was based on a murine TCR negative thymoma cell line derived from strain BW5417 (ATCC®TIB-47TM) and was stably transduced with (a) TCR27 in which the human constant regions were replaced with those of mouse, (b) a chimeric mouse/human CD8, and (c) an EGFP reporter construct linked to a minimal IL-2 promoter comprising three NFAT-binding sites (3xNFAT)[44]. The transduced cells were termed TCR27-AKD10R3 cells and will be called the effector cells. Mouse cell lines were cultured in SF-IMDM (BioConcept) supplemented with 3% FCS, 1% Penicillin/Streptomycin, and 50 μM beta-mercaptoethanol at 37 °C and 10% CO2.
Peptides were dissolved in dimethyl sulfoxide (DMSO) at concentrations of 2–20 mg/mL, aliquoted and stored at −80 °C. Peptide-pulsing experiments were performed by pre-incubating T2 cells with 25 μg peptide per 1 × 10^6 cells in PBS for 2 h at 37 °C and 5% CO2, washed three times to remove unbound peptides and used for further downstream analysis. Peptide-pulsed T2 cells were incubated with effector cells in a 2:1 ratio overnight in SF-IMDM at 37 °C and 10% CO2, washed twice and stained with anti-mouse TCR-® chain clone H57-597 (BD Pharmingen #560656, 1:500) for 30 min at RT. Cells were washed twice before FACS-analysis using a BD FACS Canto II with System software v2.0. Data analysis was performed using FlowJo V10 Software. Binding affinity between each peptide and HLA-B*0702 was determined using an Alpha assay. It is a homogenous, proximity-based assay for detection of peptides binding to HLA class I molecules using a conformation-dependent anti-HLA class I antibody, W6/32, as one tag and a biotinylated recombinant HLA class I molecule as the other tag, and a proximity-based signal was generated through the luminescent oxygen channeling immunoassay technology (PerkinElmer) as described.
To identify the off-target peptides we have utilized an approach that was developed previously. In brief, we investigated which amino acids at each position in pMLL747–755 enable TCR interaction by sequentially replacing every amino acid position outside of the anchor positions 2 and 9 with all 19 alternative amino acids, resulting in 134 peptides (133 altered peptides plus original epitope). Each peptide was individually evaluated using cell-based in vitro cytotoxicity assay. To represent the TCR recognition kernel, we have defined Position Weight Matrices (PWMs) for each assay by assigning normalized measurements to each of the 20 amino acids in each position. To predict potential off-target peptides, we applied an algorithm projecting the PWM-defined kernel into the human proteome, scoring TCR27 recognition for the predicted HLA-B^*0702 binding 9-mer peptides. Of the 11 peptides with highest predicted cross-reactivity scores, we confirmed that only 2, […] and pDOT1L998–1006, strongly activated the TCR27-expressing effector T cells.

Row | Substance | Percentage GFP positive from TCR+ cells [%]
1 | APRsPSHSM [single-residue substitution of pMLL747–755, Pos 1] | 1.5
2 | CPRsPSHSM [single-residue substitution of pMLL747–755, Pos 1] | 1.3
3 | DPRsPSHSM [single-residue substitution of pMLL747–755, Pos 1] | 1.14
4 | EPAsPSHSM [single-residue substitution of pMLL747–755, Pos 3] | 14.3
5 | EPCsPSHSM [single-residue substitution of pMLL747–755, Pos 3] | 9.53
6 | EPDsPSHSM [single-residue substitution of pMLL747–755, Pos 3] | 1.12
7 | EPEsPSHSM [single-residue substitution of pMLL747–755, Pos 3] | 2.7
8 | EPFsPSHSM [single-residue substitution of pMLL747–755, Pos 3] | 1.13
9 | EPGsPSHSM [single-residue substitution of pMLL747–755, Pos 3] | 1.47
10 | EPHsPSHSM [single-residue substitution of pMLL747–755, Pos 3] | 5.91
11 | EPIsPSHSM [single-residue substitution of pMLL747–755, Pos 3] | 1.83
12 | EPKsPSHSM [single-residue substitution of pMLL747–755, Pos 3] | 10.3
13 | EPLsPSHSM [single-residue substitution of pMLL747–755, Pos 3] | 1.35
14 | EPMsPSHSM [single-residue substitution of pMLL747–755, Pos 3] | 1.48
15 | EPNsPSHSM [single-residue substitution of pMLL747–755, Pos 3] | 5
16 | EPPsPSHSM [single-residue substitution of pMLL747–755, Pos 3] | 1
17 | EPQsPSHSM [single-residue substitution of pMLL747–755, Pos 3] | 1.31
18 | EPRAPSHSM [single-residue substitution of pMLL747–755, Pos 4] | 0.88
19 | EPRCPSHSM [pMLL747–755 with cysteine at Pos 4] | 1.02
20 | EPRDPSHSM [pMLL747–755 with aspartate at P4] | 0.92
21 | EPREPSHSM [pMLL747–755 with glutamate at P4] | 0.77
22 | EPRFPSHSM [single-residue substitution of pMLL747–755, Pos 4] | 0.91
23 | EPRGPSHSM [single-residue substitution of pMLL747–755, Pos 4] | 1.01
24 | EPRHPSHSM [single-residue substitution of pMLL747–755, Pos 4] | 0.9
25 | EPRIPSHSM [single-residue substitution of pMLL747–755, Pos 4] | 0.86
26 | EPRKPSHSM [single-residue substitution of pMLL747–755, Pos 4] | 1.03
27 | EPRLPSHSM [single-residue substitution of pMLL747–755, Pos 4] | 1.21
28 | EPRMPSHSM [single-residue substitution of pMLL747–755, Pos 4] | 1.25
